# Source: US20110144014A1, “CYTOKINE RECEPTOR MODULATORS AND USES THEREOF” (CENTRE HOSPITALIER UNIVERSITAIRE SAINTE-JUSTINE, priority 2005, published 2011)
# Marks after values point to notes of the source that are not given here. Where a SMILES comes first, the peptide text is derived from it. [ ]: non-standard residue; d: D form.
# System: TNBS-induced colon inflammation
# Experiment: TNBS rat model of inflammatory bowel disease
# Assay type: in vivo
# Procedure: Colon inflammation was induced by intra-rectal/colon administration of the hapten trinitrobenzene sulphonic acid (TNBS) on male Sprague-Dawley rats (175-200 g) (Bouma, Nature Rev, 2003; Morris, Gastroenterology, 1989). Animals were anesthetized with isoflurane and TNBS dissolved in 50% ethanol (vol/vol). 120 mg/ml (TNBS) was administered into the colon (total volume of 0.25 ml per rat) using a polyethylene tube (PE50). The cannula was inserted at 8 cm from the anus and kept in place for at least 15 minutes after TNBS administration in order to prevent expulsion of the solution. Two hours prior to TNBS administration, the API-101 derivative API-101.10 (1.1 mg/kg) or 0.9% saline was administered intravenously via the caudal vein (total volume of 0.3 ml). […] A third group (control) was not injected with TNBS. Six days after administration of TNBS, rats were killed by CO2 inhalation. Day 6 was chosen as an endpoint because by day 7 spontaneous tissue regeneration begins and this can mask the therapeutic effect of the tested peptide or peptide derivative. Colon was removed and examined macroscopically (adhesions, ulcerations, discoloration and bleeding) and histologically (neutrophil infiltration, epithelial injury, crypt distortion and ulcerations) (Anthony et al., Int. J. Exp. Path. 76:215-224, 1995; Padol et al., Eur. J. of Gastroenterol. Hepatol. 12:257-265, 2000; Dieleman et al., […], 1997; Torres et al., Digestive Diseases and Sciences 44:2523-2529, 1999). Two animals per group were studied.
# Histological transversal sections were cut at 4-6 cm from the proximal anal region and colored with the hematoxylin/eosin method. The TNBS model of inflammatory bowel disease reproduces the inflammatory characteristics and tissue injuries of Crohn's disease (e.g., in humans). Morphologically, the colon of the animals injected with TNBS presented thickening, edema, and discoloration of the intestinal wall indicating a significant inflammation. […] Histological features consisted of neutrophil infiltration into the epithelial layer and crypts, epithelial lining injury as well as the loss of crypts. […] The organization and integrity of the crypts in the API-101.10-treated colon is conserved even if there is still some inflammation (half the dose of API-101.10 was used as compared to the macroscopic analysis experiment).
# Colon inflammation was induced by intra-rectal/colon administration of the hapten trinitrobenzene sulphonic acid (TNBS) as described above. Two hours prior to TNBS administration, peptides, peptidomimetics or 0.9% saline were administered intravenously (iv) via the caudal vein (various concentrations of mg/kg/d) (total volume of 0.3 ml). […] A third group (control) was not injected with TNBS. For intermittent administration, fifteen minutes after TNBS administration, 101.10 (0.25-1 mg/kg), 101.107 (0.2 mg/kg), 101.113 (0.05-1 mg/kg) were administered by intermittent intraperitoneal injection (ip). Also, these IL-1R antagonists were given twice a day (BID); Remicade® (anti-TNFα) (10 mg/kg) and dexamethasone (0.75 mg/kg) were administered intraperitoneally but only once a day (qd). The intrarectal administration (ir) of 101.10, 101.113 (1 and 2.5 mg/kg), and 5-ASA (50 mg/kg) was done one hour after TNBS administration, and twice a day, except for 5-ASA which is once a day. Finally, 101.10 (1-5 mg/kg) was also administered orally by gavage (po), twice a day. Forty-eight hours after administration of TNBS, rats were killed by CO2 inhalation. The colon was removed and assessed macroscopically (adhesions, ulcerations, discoloration and bleeding) and histologically (neutrophil infiltration, epithelial injury, crypt distortion and ulcerations). One to seven animals per group were studied, according to treatments. Myeloperoxidase (MPO) activity was measured on tissue lysates.
# [1] = continuous infusion (ip), 0.25 mg/kg/d
# [2] = continuous infusion (ip), 0.75 mg/kg/d
# [3] = continuous infusion (ip), 2.2 mg/kg/d
# [4] = continuous infusion (ip), 4.0 mg/kg/d
# [5] = intermittent injection (ip), 0.25-BID mg/kg/d
# [6] = intermittent injection (ip), 0.50-BID mg/kg/d
# [7] = intermittent injection (ip), 1.0-BID mg/kg/d
# [8] = intermittent injection (ip), 1.0-BID mg/kg/d, 12 h after TNBS
# [9] = intermittent injection (ip), 1.0-qd mg/kg/d
# [10] = intrarectal administration, 2.5-BID mg/kg/d
# [11] = intrarectal administration, + PEG-400, 1.0-BID mg/kg/d
# [12] = intrarectal administration, + PEG-400, 2.5-BID mg/kg/d
# [13] = oral administration, 5.0-BID mg/kg/d
# [14] = oral administration, + PEG-400, 1.0-BID mg/kg/d
# [15] = oral administration, + PEG-400, 2.5-BID mg/kg/d
# [16] = oral administration, + PEG-400, 5.0-BID mg/kg/d
compound,measurement,setting,value
"CC(C)C[C@@H](NC(=O)[C@@H](CCC(=O)O)NC(=O)[C@H](NC(=O)[C@H](NC(=O)[C@@H](Cc1ccc(O)cc1)NC(=O)[C@H](N)CCCNC(=N)N)[C@H](C)O)C(C)C)C(=O)N[C@H](C)C(N)=O [API-101.10, RYTVELA] (H-[dR][dY][dT][dV][dE][dL][dA]-NH2; N-terminus and C-terminus assumed)",TNBS-induced colon damage,"1.1 mg/kg iv 2 h before TNBS, then 2.2 mg/kg continuous ip infusion, day 6",prevented TNBS-induced colon damage
same,Histologic evaluation (median score),[1],2 (Small ulcer (<5 crypts))
same,MPO (% of TNBS + Saline),[1],34 % of TNBS + Saline
same,Histologic evaluation (median score),[2],4.4 median score
same,MPO (% of TNBS + Saline),[2],54 % of TNBS + Saline
same,Histologic evaluation (median score),[3],2 (Small ulcer (<5 crypts))
same,MPO (% of TNBS + Saline),[3],46 ± 22 % of TNBS + Saline
same,Histologic evaluation (median score),[4],2 (Small ulcer (<5 crypts))
same,MPO (% of TNBS + Saline),[4],82 % of TNBS + Saline
same,inflammatory features and MPO activity,"gavage twice a day, 5.0 mg/kg/d",substantially reduces
same,Histologic evaluation (median score),[5],2.25 median score
same,MPO (% of TNBS + Saline),[5],85 % of TNBS + Saline
same,Macroscopic evaluation (median score),[5],0.87 median score
same,Histologic evaluation (median score),[6],3 (Medium ulcer (5-10 crypts))
same,MPO (% of TNBS + Saline),[6],126 % of TNBS + Saline
same,Macroscopic evaluation (median score),[6],0.87 median score
same,Histologic evaluation (median score),[7],1.25 median score
same,MPO (% of TNBS + Saline),[7],47 ± 9 % of TNBS + Saline
same,Macroscopic evaluation (median score),[7],0.8 ± 0.1 median score
same,Histologic evaluation (median score),[8],2.6 median score
same,Macroscopic evaluation (median score),[8],1.1 ± 0.1 median score
same,MPO (% of TNBS + Saline),"intermittent injection (ip), 1.0-BID mg/kg/d, 12 h after TNBS, leucocyte infiltration has already occurred",123 ± 18 % of TNBS + Saline
same,Histologic evaluation (median score),[9],5 (Marked denudation (>20 crypts))
same,MPO (% of TNBS + Saline),[9],67 % of TNBS + Saline
same,Macroscopic evaluation (median score),[9],1.63 median score
same,"MPO activity, macroscopic and histologic score","intraperitoneal osmotic pumps (continuous infusion), superior or equivalent to Kineret",marked reductions
same,MPO (% of TNBS + Saline),[10],111 ± 25 % of TNBS + Saline
same,Macroscopic evaluation (median score),[10],1.4 ± 0.1 median score
same,Histologic evaluation (median score),[11],3.2 median score
same,MPO (% of TNBS + Saline),[11],110 % of TNBS + Saline
same,Macroscopic evaluation (median score),[11],1.25t median score
same,Histologic evaluation (median score),[12],3.9 median score
same,MPO (% of TNBS + Saline),[12],59 % of TNBS + Saline
same,Macroscopic evaluation (median score),[12],1.17^† median score
same,reduction of MPO activity,"intrarectally, 2.5 mg/kg/d",50%
same,Histologic evaluation (median score),[13],2.25 median score
same,MPO (% of TNBS + Saline),[13],65 % of TNBS + Saline
same,Macroscopic evaluation (median score),[13],0.75 median score
same,Histologic evaluation (median score),[14],3.5 median score
same,MPO (% of TNBS + Saline),[14],167 % of TNBS + Saline
same,Macroscopic evaluation (median score),[14],1.0 median score
same,Histologic evaluation (median score),[15],3.5 median score
same,MPO (% of TNBS + Saline),[15],176 % of TNBS + Saline
same,Macroscopic evaluation (median score),[15],1.25 median score
same,Histologic evaluation (median score),[16],3.6 median score
same,MPO (% of TNBS + Saline),[16],57 % of TNBS + Saline
same,Macroscopic evaluation (median score),[16],1.5 median score
same,efficacy of intermittent administration,"twice a day, surpasses dexamethasone, Remicade and 5-ASA",dose-dependent efficacy
